Holding throughout (experiment): MIC, agar dilution in Mueller Hinton Agar
Format in all cases: cell-based

For test [1], the system named is Streptococcus Pneumoniae 41. The settings on record: culture 41, MHA, 35° C., 20 hours, read-out: Minimum Inhibitory Concentration. As for the experimental part:
(§1) The compounds of this invention and their respective pharmacologically acceptable salts have antibiotic activity against a variety of gram-negative bacteria including Escherichia coli, Klebsiella pneumoniae, and Pseudomonas aeruginosa. The compounds are useful for treating bacterial infections in animals, including and most preferably humans. Compounds of the invention are tested for in vitro antimicrobial activity using standard testing procedures such as the determination of minimum inhibitory concentration (MIC) by methods described in "Methods for Dilution Antimicrobial Susceptibility Tests for Bacteria That Grow Aerobically" (M7-A) Published December 1985 by the National Committee for Clinical Laboratory Standards, 771 East Lancaster Avenue, Villanova, Pa. 19084. Briefly, MIC values are determined in unsupplemented Mueller Hinton Agar (MHA). The compounds tested are diluted serially into molten MHA at 47 C. The agar is poured into petri dishes and allowed to harden. The various bacteria used for testing are grown overnight on MHA at 35 C. and transferred to Tryptiease Soy Broth (TSB) until a turbidity of 0.5 McFarland standard is obtained. The bacteria are diluted one to twenty in TSB and inoculated on the plates (1 μl using a Steers replicator).

In test [2] the test system is Escherichia Coli 9451. The note with it: COLI9451, culture 9451, MHA, 35° C., 20 hours, read-out: Minimum Inhibitory Concentration. As for the experimental part:
as §1

In test [3] the test system is Escherichia Coli 9379. The settings on record: COLI9379, culture 9379, MHA, 35° C., 20 hours, read-out: Minimum Inhibitory Concentration. The method, then:
as §1

In test [4] the test system is Staphylococcus Aureus 3665. The note with it: AUREUS3665, culture 3665, MHA, 35° C., 20 hours, read-out: Minimum Inhibitory Concentration. As for the experimental part:
as §1

Test [5] has as its system Staphylococcus Aursus 6685. The note with it: AURSUS6685, culture 6685, MHA, 35° C., 20 hours, read-out: Minimum Inhibitory Concentration. The method, then:
as §1

The subject of test [6] is Streptococcus Pyogenes 152. The note with it: culture 152, MHA, 35° C., 20 hours, read-out: Minimum Inhibitory Concentration. The method, then:
as §1

Test [7] deals with Enterobacter Cloacae 9381. The settings on record: CLOACAE9381, culture 9381, MHA, 35° C., 20 hours, read-out: Minimum Inhibitory Concentration. The method, then:
as §1

Test [8] has as its system Citrobacter Freundli 3507. The settings on record: culture 3507, MHA, 35° C., 20 hours, read-out: Minimum Inhibitory Concentration. The method, then:
as §1

Test [9] concerns Staphylococcus Aureus 9218. The settings on record: AUREUS9218, culture 9218, MHA, 35° C., 20 hours, read-out: Minimum Inhibitory Concentration. As for the experimental part:
as §1

Test [10] deals with Escherichia Coli 9380. The settings on record: COLI9380, culture 9380, MHA, 35° C., 20 hours, read-out: Minimum Inhibitory Concentration. The method, then:
as §1

In test [11] the test system is Streptococcus Faecalis 694. The settings on record: Enterococcus faecalis, culture 694, MHA, 35° C., 20 hours, read-out: Minimum Inhibitory Concentration. As for the experimental part: as §1
Test [12] concerns Enterobacter Cloacae 9382. The note with it: CLOACAE9382, culture 9382, MHA, 35° C., 20 hours, read-out: Minimum Inhibitory Concentration. The method, then: as §1
Test [13] concerns Serratia Marcescens 6888. The settings on record: culture 6888, MHA, 35° C., 20 hours, read-out: Minimum Inhibitory Concentration. The method, then:
as §1

Test [14] relates to Klebsiella Pneumoniae 58. The settings on record: culture 58, MHA, 35° C., 20 hours, read-out: Minimum Inhibitory Concentration. As for the experimental part: as §1
The subject of test [15] is Proteus Vulgaris 9679. The settings on record: culture 9679, MHA, 35° C., 20 hours, read-out: Minimum Inhibitory Concentration. As for the experimental part:
as §1

Test [16] has as its system Pseudomonas Aeruginosa 9191. The note with it: culture 9191, MHA, 35° C., 20 hours, read-out: Minimum Inhibitory Concentration. The method, then: as §1
Test [17] has as its system Pseudomonas Aeruginosa 231. The note with it: culture 231, MHA, 35° C., 20 hours, read-out: Minimum Inhibitory Concentration. As for the experimental part: as §1
For test [18], the system named is Klebsiella Oxytoca 9383. The settings on record: OXYTOCA9383, culture 9383, MHA, 35° C., 20 hours, read-out: Minimum Inhibitory Concentration. The method, then:
as §1

Test [19] relates to Klebsiella Oxytoca 9384. The note with it: OXYTOCA9384, culture 9384, MHA, 35° C., 20 hours, read-out: Minimum Inhibitory Concentration. As for the experimental part:
as §1

In brackets after ≈: the same amount, converted by molar mass.

For the compound `CC(C)(ON=C(C(=O)NC1CN(C(=O)NS(=O)(=O)n2ncn(NC(=O)c3cc(=O)c(O)c[nH]3)c2=O)C1=O)c1csc(N)n1)C(=O)O` (centres unmarked) [Compound U-77938], the MIC in test [1] was 128 µg/mL (≈ 187 µM); in test [2], more than 0.015 µg/mL; in test [3] it was more than 0.015 µg/mL; in [4], more than 128 µg/mL; in test [5], more than 128 µg/mL; in test [6], 16 µg/mL (≈ 23.4 µM). Further, the MIC was 16 µg/mL (≈ 23.4 µM) in test [7]; 0.06 µg/mL (≈ 0.0878 µM) in test [8]; more than 128 µg/mL in [9]; more than 0.015 µg/mL in [10]; more than 128 µg/mL in [11]; 0.5 µg/mL (≈ 0.731 µM) in test [12]. The MIC in test [13] came out at 0.03 µg/mL (≈ 0.0439 µM); in [14], 0.25 µg/mL (≈ 0.366 µM); in test [15], 0.03 µg/mL (≈ 0.0439 µM); in test [16], 0.25 µg/mL (≈ 0.366 µM); in [17], 0.125 µg/mL (≈ 0.183 µM); in test [18], 0.125 µg/mL (≈ 0.183 µM). The MIC in test [19] turned out to be 0.06 µg/mL (≈ 0.0878 µM).
`Nc1nc(C(=NOCC(=O)O)C(=O)N[C@H]2CN(C(=O)NS(=O)(=O)n3ncn(NC(=O)c4cc(=O)c(O)c[nH]4)c3=O)C2=O)cs1` [Compound U-78284]: the MIC in test [1] is 64 µg/mL (≈ 97.6 µM); in [2], 0.015 µg/mL (≈ 0.0229 µM); in [3], more than 0.008 µg/mL; in [4] it was more than 64 µg/mL; in [5], more than 64 µg/mL; in [6], 32 µg/mL (≈ 48.8 µM). Moreover, the MIC in test [7] is 16 µg/mL (≈ 24.4 µM); in test [8], 0.06 µg/mL (≈ 0.0915 µM); in [9], more than 64 µg/mL; in [10], more than 0.008 µg/mL; in [11] it was more than 64 µg/mL; in test [12], 0.25 µg/mL (≈ 0.381 µM). Besides, the MIC in test [13] amounted to 0.03 µg/mL (≈ 0.0458 µM); in test [14], 0.25 µg/mL (≈ 0.381 µM); in [15] it was 0.125 µg/mL (≈ 0.191 µM); in [16] it was 2 µg/mL (≈ 3.05 µM); in test [17], 2 µg/mL (≈ 3.05 µM); in test [18], 0.25 µg/mL (≈ 0.381 µM). Further, in [19], the MIC came to 0.03 µg/mL (≈ 0.0458 µM).

The values are drawn from patent publication US5006650A, “Novel N-1 substituted beta-lactams as antibiotics” (The Upjohn Company, priority 1989, dated 1991).
